Test results: ChEMBL document CHEMBL1201862, “PubChem BioAssay data set” (2004)
The source made the active and inactive calls.

Experiments:
Melanocortin receptor 4 = Melanocortin receptor 4 (Homo sapiens, UniProt P32245); experiment: MC4R antagonist potency on cAMP, dose response, cell-based, TR-FRET, biased antagonists (AID 602298); type: functional;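 further: antagonist potency against agonist-stimulated cAMP production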
P388/ADR = experiment: cells; type: functional; settings: Mus musculus
SN12K1 = experiment: cells; type: functional; settings: Homo sapiens
[1] = nonselective inhibitors of cellular cAMP signaling, dose response, counter-screen for MC4R biased antagonist project, cell-based, TR-FRET cAMP detection (AID 602305); type: functional;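 further: U2OS cells stimulated with forskolin near its EC80 as the cAMP inducer; potency is for inhibition of forskolin-stimulated cAMP signaling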
P388 = experiment: cells; type: functional; settings: Mus musculus
Insulin-degrading enzyme [2] = target: T1, Insulin-degrading enzyme (Homo sapiens, UniProt P14735); experiment: activators of recombinant IDE enzyme, dose response, counter-screen for IDE activator project, biochemical, fluorescence polarization (AID 588681)
T1 sequence (P14735 whole entry): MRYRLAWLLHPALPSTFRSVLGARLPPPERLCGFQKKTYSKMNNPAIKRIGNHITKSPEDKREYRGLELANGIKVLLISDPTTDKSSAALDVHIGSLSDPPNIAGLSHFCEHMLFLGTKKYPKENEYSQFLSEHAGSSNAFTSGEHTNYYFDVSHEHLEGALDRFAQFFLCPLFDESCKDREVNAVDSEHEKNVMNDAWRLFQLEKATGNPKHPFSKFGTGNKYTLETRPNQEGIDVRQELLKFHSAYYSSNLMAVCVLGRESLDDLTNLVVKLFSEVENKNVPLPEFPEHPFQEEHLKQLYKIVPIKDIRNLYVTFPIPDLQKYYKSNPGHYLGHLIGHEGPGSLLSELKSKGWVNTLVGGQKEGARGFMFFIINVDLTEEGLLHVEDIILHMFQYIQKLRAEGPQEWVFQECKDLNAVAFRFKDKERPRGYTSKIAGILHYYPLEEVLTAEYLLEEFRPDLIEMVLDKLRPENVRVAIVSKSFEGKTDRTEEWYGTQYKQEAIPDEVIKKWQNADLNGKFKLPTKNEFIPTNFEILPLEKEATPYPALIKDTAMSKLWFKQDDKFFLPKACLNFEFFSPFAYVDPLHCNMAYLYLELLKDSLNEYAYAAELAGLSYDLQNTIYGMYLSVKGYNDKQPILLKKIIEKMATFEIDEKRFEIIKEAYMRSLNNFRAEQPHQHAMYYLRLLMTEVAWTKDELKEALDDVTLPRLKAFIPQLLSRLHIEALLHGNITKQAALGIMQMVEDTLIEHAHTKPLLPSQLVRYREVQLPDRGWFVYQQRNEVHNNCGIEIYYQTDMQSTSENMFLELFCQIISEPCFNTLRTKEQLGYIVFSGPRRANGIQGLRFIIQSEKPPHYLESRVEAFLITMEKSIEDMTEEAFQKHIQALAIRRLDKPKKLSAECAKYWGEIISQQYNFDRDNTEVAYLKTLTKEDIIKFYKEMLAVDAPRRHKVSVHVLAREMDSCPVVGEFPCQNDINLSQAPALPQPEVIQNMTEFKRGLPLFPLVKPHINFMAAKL

Insulin-degrading enzyme [3] = target: T1, Insulin-degrading enzyme; experiment: activators of endogenous IDE in HEK cells, dose response, cell-based, fluorescence polarization (AID 588439); type: functional
HEK293 [4] = experiment: HEK cell cytotoxicity by LDH release, dose response, cytotoxicity control for IDE activator project, fluorescence, HEK cells (AID 588440); type: functional, cell-based; settings: Homo sapiens;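 further: cytotoxicity by LDH release measuring loss of membrane integrity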
HEK293 [5] = experiment: optical interference in Abeta FP readout, dose response, artefact control for IDE activator project, biochemical, fluorescence polarization (AID 588442); type: functional, cell-based; settings: Homo sapiens
Cytochrome P450 1A2 = target: T2, Cytochrome P450 1A2 (Homo sapiens, UniProt P05177);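 further: PubChem cytochrome P450 panel assay, CYP1A2 panel member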
T2 sequence (P05177 whole entry): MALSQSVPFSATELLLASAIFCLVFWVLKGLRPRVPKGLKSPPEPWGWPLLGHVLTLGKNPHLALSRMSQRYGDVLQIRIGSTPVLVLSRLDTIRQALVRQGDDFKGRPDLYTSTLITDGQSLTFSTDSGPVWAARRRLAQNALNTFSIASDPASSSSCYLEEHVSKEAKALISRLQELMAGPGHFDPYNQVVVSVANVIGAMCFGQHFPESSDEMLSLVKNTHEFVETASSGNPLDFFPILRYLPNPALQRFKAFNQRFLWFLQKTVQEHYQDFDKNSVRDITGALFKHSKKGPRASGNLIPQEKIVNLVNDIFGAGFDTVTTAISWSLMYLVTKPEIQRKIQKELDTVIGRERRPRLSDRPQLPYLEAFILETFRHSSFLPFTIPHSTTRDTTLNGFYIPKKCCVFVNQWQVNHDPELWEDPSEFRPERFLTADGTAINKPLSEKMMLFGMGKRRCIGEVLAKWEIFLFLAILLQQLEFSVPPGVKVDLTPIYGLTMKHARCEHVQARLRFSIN

CHO-K1 = experiment: (§1) Counterscreen for antagonists of the orexin 1 receptor (OX1R; HCRTR1): Homogeneous time resolved fluorescence (HTRF)-based cell-based dose response assay to identify antagonists of the parental CHO-K1 cell line. [Related pubchem assays (depositor defined):AID434989, AID435008, AID463079, AID485270, AID492963, AID492964, AID492965, AID493232, AID504699, AID504701]; type: functional; settings: Cricetulus griseus
[6] = as §1, with “Fluorescence-based” for “Homogeneous time resolved fluorescence (HTRF)-based”, “cell-based high throughput” for “cell-based”, “CHO” for “CHO-K1”; type: functional
[7] = target: T3, Orexin/Hypocretin receptor type 1 (Homo sapiens, UniProt O43613); experiment: Homogeneous Time Resolved Fluorescence (HTRF)-based cell-based high throughput dose response assay for antagonists of the orexin 1 receptor (OX1R; HCRTR1). [Related pubchem assays (depositor defined):AID434989, AID435008, AID463079, AID485270, AID492963, AID492964, AID492965, AID493232, AID504717, AID504718]; type: functional
T3 sequence (O43613 whole entry): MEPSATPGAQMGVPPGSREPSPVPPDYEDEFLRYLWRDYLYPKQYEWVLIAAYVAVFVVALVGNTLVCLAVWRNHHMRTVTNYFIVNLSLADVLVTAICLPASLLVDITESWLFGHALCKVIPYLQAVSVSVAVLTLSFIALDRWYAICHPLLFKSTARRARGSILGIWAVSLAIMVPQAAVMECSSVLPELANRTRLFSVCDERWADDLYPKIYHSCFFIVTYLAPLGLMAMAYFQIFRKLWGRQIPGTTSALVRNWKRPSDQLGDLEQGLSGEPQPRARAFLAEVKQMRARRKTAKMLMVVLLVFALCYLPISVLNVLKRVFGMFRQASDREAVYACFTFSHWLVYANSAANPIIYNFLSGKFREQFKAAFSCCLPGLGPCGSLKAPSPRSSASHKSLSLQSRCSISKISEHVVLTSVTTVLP

[8] = target: T3, Orexin/Hypocretin receptor type 1; experiment: Fluorescence-based cell-based high throughput dose response assay for antagonists of the orexin 1 receptor (OX1R; HCRTR1). [Related pubchem assays (depositor defined):AID434989, AID435008, AID463079, AID485270, AID492963, AID492964, AID492965, AID493232, AID504717, AID504718]; type: functional
Orexin receptor type 2 [9] = target: T4, Orexin receptor type 2 (Homo sapiens, UniProt O43614); experiment: Counterscreen assay for antagonists of the orexin 1 receptor (OX1R; HCRTR1): Fluorescence-based cell-based dose response assay for antagonists of the orexin 2 receptor (OX2R; HCRTR2), run by assay provider.; type: functional
T4 sequence (O43614 whole entry): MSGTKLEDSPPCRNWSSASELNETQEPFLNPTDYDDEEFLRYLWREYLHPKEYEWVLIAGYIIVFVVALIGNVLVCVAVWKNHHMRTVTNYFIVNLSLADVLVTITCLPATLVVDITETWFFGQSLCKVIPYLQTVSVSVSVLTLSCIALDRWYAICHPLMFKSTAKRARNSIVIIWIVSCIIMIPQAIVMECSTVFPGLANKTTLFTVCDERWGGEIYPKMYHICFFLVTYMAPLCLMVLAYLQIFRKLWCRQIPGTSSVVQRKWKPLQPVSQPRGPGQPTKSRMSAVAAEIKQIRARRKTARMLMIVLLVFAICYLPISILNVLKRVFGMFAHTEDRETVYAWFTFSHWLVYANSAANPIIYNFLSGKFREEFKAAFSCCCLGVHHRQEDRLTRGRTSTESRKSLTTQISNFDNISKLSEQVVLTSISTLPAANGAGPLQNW

Orexin receptor type 2 [10] = target: T4, Orexin receptor type 2; experiment: Counterscreen assay for antagonists of the orexin 1 receptor (OX1R; HCRTR1): Homogeneous Time Resolved Fluorescence (HTRF)-based cell-based dose response assay for antagonists of the orexin 2 receptor (OX2R; HCRTR2), run by assay provider.; type: functional
[11] = target: T5, Carboxy-terminal domain RNA polymerase II polypeptide A small phosphatase 1 (Homo sapiens, UniProt Q9GZU7); experiment: inhibitors of CTDSP1, concentration-response testing, biochemical assay, absorbance-based, actives from ultra-high-throughput screening (AID 540297); type: functional
T5 sequence (Q9GZU7 whole entry): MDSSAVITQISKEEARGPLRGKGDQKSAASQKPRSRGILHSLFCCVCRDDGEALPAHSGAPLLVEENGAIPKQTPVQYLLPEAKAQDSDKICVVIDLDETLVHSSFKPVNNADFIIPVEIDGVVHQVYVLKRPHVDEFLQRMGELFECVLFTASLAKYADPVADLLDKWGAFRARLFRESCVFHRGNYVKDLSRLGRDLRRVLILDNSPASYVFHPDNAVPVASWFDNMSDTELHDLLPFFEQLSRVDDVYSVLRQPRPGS

Sequence of Melanocortin receptor 4 (P32245 whole entry): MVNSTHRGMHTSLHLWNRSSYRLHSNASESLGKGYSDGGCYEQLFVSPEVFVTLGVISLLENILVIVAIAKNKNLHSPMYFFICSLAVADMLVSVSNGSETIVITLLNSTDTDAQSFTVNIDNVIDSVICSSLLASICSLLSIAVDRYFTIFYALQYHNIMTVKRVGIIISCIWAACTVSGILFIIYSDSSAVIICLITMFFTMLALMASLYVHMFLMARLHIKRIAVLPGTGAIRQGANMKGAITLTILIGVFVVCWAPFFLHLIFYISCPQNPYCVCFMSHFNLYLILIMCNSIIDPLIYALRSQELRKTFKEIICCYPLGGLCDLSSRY

Compound	IC50 (CHO-K1)	IC50 [6]	IC50 [7]	IC50 [8]	IC50 (Orexin receptor type 2 [9])	IC50 (Orexin receptor type 2 [10])	further results
CC(C)Cc1ccc(C(C)CC2=CCC(CN(C)C)C2=O)cc1 (stereo not drawn)	–	–	–	–	–	–	IC50 (Melanocortin receptor 4): 8.78 µM (active); GI50 (P388/ADR): 1.09 µM (active); GI50 (SN12K1): 3.33 µM (inactive); IC50 [1]: > 64.7 µM (inactive); GI50 (P388): 2.02 µM (inactive)
Cc1ccccc1OC/C(O)=C(\C#N)c1nc2ccccc2[nH]1	–	–	–	–	–	–	EC50 (Insulin-degrading enzyme [2]): > 54.7 µM (inactive); EC50 (Insulin-degrading enzyme [3]): > 54.7 µM (inactive); IC50 (HEK293 [4]): > 89.2 µM (inactive); EC50 (HEK293 [5]): > 54.7 µM (inactive); AC50 (Cytochrome P450 1A2): 0.282 µM (inconclusive)
N#Cc1cccn1-c1nccc(-c2cccs2)n1	> 66.2 µM (inactive)	> 49.7 µM (inactive)	3.66 µM (active)	20.3 µM (inactive)	> 88.8 µM (inactive)	> 50 µM (inactive)	–
O=C(OCc1cc(=O)n2c(n1)sc1ccccc12)c1cccc(O)c1	> 66.2 µM (inactive)	37 µM (inactive)	5.46 µM (active)	5.73 µM (active)	> 88.8 µM (inactive)	> 50 µM (inactive)	IC50 [11]: 3.87 µM (active)
